Patent publication US12459951B2, “Compounds that interact with RAS superfamily proteins for treatment of cancers, inflammatory diseases, rasopathies, and fibrotic disease” (SHY Therapeutics, LLC, priority 2022, dated 2025)

Assays:
Rho-A = target: T1, Rho-A (Homo sapiens, UniProt P61586); experiment: Ras GTP Binding Domain Inhibition Assay (Ras Superfamily Assay); details: read-out: Rho-A: % inh..
T1 construct: made in house
In short: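 Ni-plate capture of His-tagged protein (10-30 μg/mL, o/n 4° C); cpd 20 μM or dilution series, 1% DMSO, 3 h RT ± Sos 556-1049 last h; 100 nM Cy-labelled GTP 45 min RT; 3× wash; fluorescence read.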

[1] = Kinetic Solubility Assay in pH 7.4 Buffer + 2% DMSO; type: physicochemical; details: phosphate-buffered saline pH 7.4 with 2% DMSO, aqueous buffer, kinetic from dmso stock, 25° C., two hours
Procedure: Biological Example 9: Kinetic Solubility
Kinetic solubility assay in pH 7.4 Buffer+2% DMSO (“Kinetic Solubility Assay) was performed according to the following protocol: Briefly, using a 20 mM stock solution of the tested compounds in 100% DMSO, dilutions were prepared to a theoretical concentration of 400 μM in duplicates in phosphate-buffered saline pH 7.4 (138 mM NaCl, 2.7 mM KCl, 10 mM K-phosphate) with 2% final DMSO. The tested compounds dilutions in PBS were further allowed to equilibrate at 25° C. on a thermostatic shaker for two hours and then filtered through HTS filter plates using a vacuum manifold. The filtrates of the test compounds were diluted 2-fold with acetonitrile with 2% DMSO before measuring.
In parallel, using a 20 mM stock solution of the tested compounds in 100% DMSO, dilutions were prepared to theoretical concentrations of 0 μM (blank), 10 μM, 25 μM, 50 μM, 100 μM, and 200 μM in 50% acetonitrile/PBS with 2% final DMSO to generate calibration curves. Ondansetron was used as a reference compound to control proper assay performance. 200 μL of each sample was transferred to a 96-well plate and measured in the 230-550 nm range with a 5 nm step.
The concentrations of compounds in PBS filtrate are calculated using a dedicated Microsoft Excel calculation script. Proper absorbance wavelengths for calculations are selected for each compound manually based on absorbance maximums (absolute absorbance unit values for the minimum and maximum concentration points within the 0-3 OD range). Each final dataset is visually evaluated by the operator, and goodness of fit (R2) is calculated for each calibration curve. The effective range of this assay is approximately 2-400 μM and the compounds returning values close to the upper limit of the range may have higher actual solubility (e.g., 5′-deoxy-5-fluorouridine).
Table 8 show kinetic solubility data for selected compounds tested in the Kinetic Solubility assay described above.

T1 sequence (P61586 whole entry, the tested form may be a part): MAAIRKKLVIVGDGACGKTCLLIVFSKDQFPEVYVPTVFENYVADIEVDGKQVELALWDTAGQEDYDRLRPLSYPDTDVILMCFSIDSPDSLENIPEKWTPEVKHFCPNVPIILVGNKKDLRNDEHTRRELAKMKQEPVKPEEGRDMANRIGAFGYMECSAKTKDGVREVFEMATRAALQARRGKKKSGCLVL

inhibition at 20 µM (Rho-A)	solubility at 2 h [1]	SMILES
0%		COCC1CCN(c2nc(-c3ccccn3)nn3cc(-c4ccn(C(C)C)n4)c(C)c23)C1 (racemic) [Compound 10, rac 6-(1-Isopropyl-1H-pyrazol-3-yl)-4-(3-(methoxymethyl)pyrrolidin-1-yl)-5-methyl-2-(pyridin-2-yl)pyrrolo[2,1-f][1,2,4]triazine]
0%		COC[C@@H]1CC[C@@H]1CNc1nc(-c2ccccn2)nn2cc(-c3ccn(C(C)C)n3)c(C)c12 (racemic) [Compound 11, rac 6-(1-Isopropyl-1H-pyrazol-3-yl)-N-(((1S,2R)-2-(methoxymethyl)cyclobutyl)methyl)-5-methyl-2-(pyridin-2-yl)pyrrolo[2,1-f][1,2,4]triazin-4-amine]
0%		COC1CCCN(c2nc(-c3ccccn3)nn3cc(-c4ccn(C(C)C)n4)c(C)c23)C1 (racemic) [Compound 12, rac 6-(1-Isopropyl-1H-pyrazol-3-yl)-4-(3-methoxypiperidin-1-yl)-5-methyl-2-(pyridin-2-yl)pyrrolo[2,1-f][1,2,4]triazine]
0%		COc1cc(Nc2nc(-c3ccccn3)nn3cc(-c4ccn(C(C)C)n4)c(C)c23)ncn1 [Compound 13, 6-(1-Isopropyl-1H-pyrazol-3-yl)-N-(6-methoxypyrimidin-4-yl)-5-methyl-2-(pyridin-2-yl)pyrrolo[2,1-f][1,2,4]triazin-4-amine]
0%		COc1cccc(Nc2nc(-c3ccccn3)nn3cc(-c4ccn(C(C)C)n4)c(C)c23)n1 [Compound 14, 6-(1-Isopropyl-1H-pyrazol-3-yl)-N-(6-methoxypyridin-2-yl)-5-methyl-2-(pyridin-2-yl)pyrrolo[2,1-f][1,2,4]triazin-4-amine]
1 to 25%		COc1cccc(-c2cn3nc(-c4nccn4C)nc(O)c3c2C)c1Cl [Compound 15, 6-(2-Chloro-3-methoxyphenyl)-5-methyl-2-(1-methyl-1H-imidazol-2-yl)pyrrolo[2,1-f][1,2,4]triazin-4-ol]
0%		COCCNc1nc(-c2nccn2C)nn2cc(-c3cccc(OC)c3Cl)c(C)c12 [Compound 16, 6-(2-Chloro-3-methoxyphenyl)-N-(2-methoxyethyl)-5-methyl-2-(1-methyl-1H-imidazol-2-yl)pyrrolo[2,1-f][1,2,4]triazin-4-amine]
	10 to 30 µM	Cc1c(-c2ccn(C)n2)cn2nc(-c3nccn3C)nc(Nc3cc4c(cn3)CCO4)c12 [Compound 221, N-(5-Methyl-2-(1-methyl-1H-imidazol-2-yl)-6-(1-methyl-1H-pyrazol-3-yl)pyrrolo[2,1-f][1,2,4]triazin-4-yl)-2,3-dihydrofuro[3,2-c]pyridin-6-amine]
	10 to 30 µM	Cc1c(-c2ccn(C)n2)cn2nc(-c3nccn3C)nc(Nc3cc(N4CCOCC4)ccn3)c12 [Compound 222, 5-Methyl-2-(1-methyl-1H-imidazol-2-yl)-6-(1-methyl-1H-pyrazol-3-yl)-N-(4-morpholinopyridin-2-yl)pyrrolo[2,1-f][1,2,4]triazin-4-amine]
	< 10 µM	COc1ccc(Nc2nc(-c3nccn3C)nn3cc(-c4ccn(C)n4)c(C)c23)nc1 [Compound 224, N-(5-Methoxypyridin-2-yl)-5-methyl-2-(1-methyl-1H-imidazol-2-yl)-6-(1-methyl-1H-pyrazol-3-yl)pyrrolo[2,1-f][1,2,4]triazin-4-amine]
	< 10 µM	Cc1ccc(Nc2nc(-c3nccn3C)nn3cc(-c4ccn(C)n4)c(C)c23)nc1 [Compound 226, 5-Methyl-2-(1-methyl-1H-imidazol-2-yl)-6-(1-methyl-1H-pyrazol-3-yl)-N-(5-methylpyridin-2-yl)pyrrolo[2,1-f][1,2,4]triazin-4-amine]
	< 10 µM	Cc1c(-c2ccn(C)n2)cn2nc(-c3nccn3C)nc(Nc3ccc(N(C)C)cn3)c12 [Compound 227, N5,N5-Dimethyl-N2-(5-methyl-2-(1-methyl-1H-imidazol-2-yl)-6-(1-methyl-1H-pyrazol-3-yl)pyrrolo[2,1-f][1,2,4]triazin-4-yl)pyridine-2,5-diamine]
	< 10 µM	COc1cc(Nc2nc(-c3nccn3C)nn3cc(-c4ccn(C)n4)c(C)c23)ncc1C [Compound 235, N-(4-Methoxy-5-methylpyridin-2-yl)-5-methyl-2-(1-methyl-1H-imidazol-2-yl)-6-(1-methyl-1H-pyrazol-3-yl)pyrrolo[2,1-f][1,2,4]triazin-4-amine]
	< 10 µM	COc1cc(Nc2nc(-c3nccn3C)nn3cc(-c4ccn(C)n4)c(C)c23)ncc1C1CC1 [Compound 238, N-(5-Cyclopropyl-4-methoxypyridin-2-yl)-5-methyl-2-(1-methyl-1H-imidazol-2-yl)-6-(1-methyl-1H-pyrazol-3-yl)pyrrolo[2,1-f][1,2,4]triazin-4-amine]
